Assay results reported in patent US9884863B2, “STAT3 inhibitor” (Board of Regents, The University of Texas System, priority 2013, dated 2018).
Where two headings read alike, the source gives them in different places.

Experiments:
MDA-MB-231 = experiment: MTS cell proliferation assay, MDA-MB-231; assay type: cell-based, human; conditions: Homo sapiens, read-out: IC50 MDA-MB-231 (Table 1)
Protocol: (§1) Cancer cells (breast cancer cell lines MCF-7, MDA-MB-361, SKBR3 and MDA-MB-231, pancreatic cancer cell lines AsPC-1. BxPC3 and Panc-1) were seeded in 96-well plates at a density of 1000-2000 cells/well and treated with DMSO, 0.01, 0.1, 1, 5, 10, and 100 mM of STAT3 individual inhibitors for 72 hrs. Proliferation was measured by treating cells with the 3-(4,5-dimethylthiazol-2-yl)-5-(3-carboxymethoxyphenyl)-2-(4-sulfophenyl)-2H-tetrazolium) (MTS) in a CellTiter 96t AQueous Non-Radioactive Cell Proliferation Assay kit from Promega, Madison, Wis., USA). Absorbance of all wells was determined by measuring OD at 550 nm after 1 hr incubation at 37° C. on a 96-well iMark™ Microplate Absorbance Reader (BioRad, Hercules, Calif.).
In Vitro Determination of Effects of Synthesized Compounds on Cancer Cell Proliferation. Cancer cells (breast cancer cell lines MCF-7 and MDA-MB-231, pancreatic cancer cell lines AsPC-1 and Panc-1) were seeded in 96-well plates at a density of 2×10^3 cells/well and treated with DMSO, 0.01, 0.1, 1, 5, 10, and 100 μM of individual STAT3 inhibitors for 72 h. Proliferation was measured by treating cells with the 3-(4,5-dimethylthiazol-2-yl)-5-(3-carboxymethoxyphenyl)-2-(4-sulfophenyl)-2H-tetrazolium) (MTS) in a CellTiter 96t Aqueous Non-Radioactive Cell Proliferation Assay kit (Promega, Madison, Wis., USA). Absorbance of all wells was determined by measuring OD at 550 nm after 1 h incubation at 37° C. on a 96-well iMark™ Microplate Absorbance Reader (BioRad, Hercules, Calif.). Each individual compound was tested in quadruplicate wells for each concentration. […]

MCF-7 = experiment: MTS cell proliferation assay, MCF-7; assay type: cell-based, human
Protocol: as §1, with “BxPC3 and Panc-1) were seeded in 96-well plates at a density of 1000-2000 cells/well and treated with DMSO, 0.01, 0.1, 1, 5, 10, and 100 mM of STAT3 individual inhibitors for 72 hrs.” left out, “Calif.). Each individual compound was tested in quadruplicate wells for each concentration, and the results were reported as mean absorption±s.e.” for “Calif.).”
In Vitro Determination of Effects of Synthesized Compounds on Cancer Cell Proliferation. Cancer cells (breast cancer cell lines MCF-7 and MDA-MB-231, pancreatic cancer cell lines AsPC-1 and Panc-1) were […], 0.01, 0.1, 1, 5, 10, […] Proliferation was measured by treating cells with the 3-(4,5-dimethylthiazol-2-yl)-5-(3-carboxymethoxyphenyl)-2-(4-sulfophenyl)-2H-tetrazolium) (MTS) in a CellTiter 96t Aqueous Non-Radioactive Cell Proliferation Assay kit (Promega, Madison, Wis., USA). Absorbance of all wells was determined by measuring OD at 550 nm after 1 h incubation at 37° C. on a 96-well iMark™ Microplate Absorbance Reader (BioRad, Hercules, Calif.). Each individual compound was tested in quadruplicate wells for each concentration.

[1] = MDA-MB-231, ER-negative breast cancer, 72 hrs, >10 = no effect
[2] = Homo sapiens, MCF7, 72 h; read-out: IC50 MCF-7 (Table 1)
[3] = Homo sapiens, MCF7, 72 h, read-out: IC50 MCF-7 (Table 1)

SMILES | melting point | IC50 (MDA-MB-231; [1]) | IC50 (MCF-7; [2]) | other results
O=C(Nc1ccc2c(c1)S(=O)(=O)C=C2)c1c2ccccc2nc2ccccc12 | 237 to 238 °C |  |  | 
N#C/C(=C\c1cccnc1)C(=O)Nc1ccc2c(c1)S(=O)(=O)C=C2 [RMF-1-22, 2-Cyano-N-(1,1-dioxo-1H-1λ^6-benzo[b]thiophen-6-yl)-3-pyridin-3-yl-acrylamide] | 255 to 256 °C |  |  | 
COc1ccccc1/C=C(\C#N)C(=O)Nc1ccc2c(c1)S(=O)(=O)C=C2 [RMF-1-12, 2-Cyano-N-(1,1-dioxo-1H-1λ^6-benzo[b]thiophen-6-yl)-3-(2-methoxyphenyl)acrylamide] | 223 to 224 °C |  |  | 
CN(C)c1ccc(/C=C(\C#N)C(=O)Nc2ccc3c(c2)S(=O)(=O)C=C3)cc1 [RMF-1-16, 2-Cyano-3-(4-dimethylaminophenyl)-N-(1,1-dioxo-1H-1λ^6-benzo[b]thiophen-6-yl)acrylamide] | 279 to 280 °C |  |  | 
N#C/C(=C\c1cccc(Br)c1)C(=O)Nc1ccc2c(c1)S(=O)(=O)C=C2 [RMF-1-32, 3-(3-Bromophenyl)-2-cyano-N-(1,1-dioxo-1H-1λ^6-benzo[b]thiophen-6-yl)acrylamide] | 250 to 251 °C |  |  | 
N#C/C(=C\c1ccncc1)C(=O)Nc1ccc2c(c1)S(=O)(=O)C=C2 [RMF-1-23, 2-Cyano-N-(1,1-dioxo-1H-1λ^6-benzo[b]thiophen-6-yl)-3-pyridin-4-yl-acrylamide] | 288 to 289 °C |  |  | 
Cc1cc(C)c(/C=C(\C#N)C(=O)Nc2ccc3c(c2)S(=O)(=O)C=C3)c(C)c1 [RMF-1-14, 2-Cyano-N-(1,1-dioxo-1H-1λ^6-benzo[b]thiophen-6-yl)-3-(2,4,6-trimethylphenyl)acrylamide] | 255 to 256 °C |  |  | 
N#C/C(=C\c1ccccc1O)C(=O)Nc1ccc2c(c1)S(=O)(=O)C=C2 [RMF-1-9, 2-Cyano-N-(1,1-dioxo-1H-1λ^6-benzo[b]thiophen-6-yl)-3-(2-hydroxyphenyl)acrylamide] | 284 to 285 °C |  |  | 
O=C(Nc1ccc([N+](=O)[O-])cc1Cl)c1cc(Cl)ccc1OCCBr [HJC-3-64, 2-(2-Bromoethoxy)-5-chloro-N-(2-chloro-4-nitrophenyl)benzamide] |  |  |  | IC50 (MDA-MB-231; MDA-MB-231, 72 h): > 10 µM; IC50 (MCF-7; [3]): > 10 µM
Cc1cccc(/C=C(\C#N)C(=O)Nc2ccc3c(c2)S(=O)(=O)C=C3)n1 [HJC-5-88, 2-Cyano-N-(1,1-dioxo-1H-1λ^6-benzo[b]thiophen-6-yl)-3-(6-methyl-pyridin-2-yl)acrylamide] | 221 to 222 °C |  |  | 
COc1cc(/C=C(\C#N)C(=O)Nc2ccc3c(c2)S(=O)(=O)C=C3)cc(OC)c1OC [RMF-1-38, 2-Cyano-N-(1,1-dioxo-1H-1λ^6-benzo[b]thiophen-6-yl)-3-(3,4,5-trimethoxyphenyl)acrylamide] | 224 to 225 °C |  |  | 
N#C/C(=C\c1cccc(O)c1)C(=O)Nc1ccc2c(c1)S(=O)(=O)C=C2 [RMF-1-10, 2-Cyano-N-(1,1-dioxo-1H-1λ^6-benzo[b]thiophen-6-yl)-3-(3-hydroxyphenyl)acrylamide] | 262 to 263 °C |  |  | 
COc1ccc(S(=O)(=O)Nc2ccc3c(c2)S(=O)(=O)C=C3)cc1 [HJC-3-68, N-(1,1-Dioxo-1H-1λ^6-benzo[b]thiophen-6-yl)-4-methoxybenzenesulfonamide] |  | 2.71 µM | 3.45 µM | 
CN1CCC(Oc2ccc(Cl)cc2C(=O)Nc2ccc3c(c2)S(=O)(=O)C=C3)CC1 [HJC-3-82, 5-Chloro-N-(1,1-dioxo-1H-1λ^6-benzo[b]thiophen-6-yl)-2-(1-methyl-piperidin-4-yloxy) benzamide] |  |  |  | IC50 (MDA-MB-231; MDA-MB-231, 72 h): 2.68 µM; IC50 (MCF-7; [3]): 3.53 µM
O=C(Nc1ccc2c(c1)S(=O)(=O)C=C2)c1cc(Cl)ccc1OCCBr [HJC-3-77, 2-(2-Bromo-ethoxy)-5-chloro-N-(1,1-dioxo-1H-1λ^6-benzo[b]thiophen-6-yl)benzamide] |  |  |  | IC50 (MDA-MB-231; MDA-MB-231, 72 h): > 10 µM; IC50 (MCF-7; [3]): > 10 µM
O=C(Nc1ccc([N+](=O)[O-])cc1Cl)c1cc(Cl)ccc1OCCF [HJC-3-98, 5-Chloro-N-(2-chloro-4-nitro-phenyl)-2-(2-fluoro-ethoxy)benzamide] |  |  |  | IC50 (MDA-MB-231; MDA-MB-231, 72 h): > 10 µM; IC50 (MCF-7; [3]): > 10 µM
COC1CS(=O)(=O)c2cc(NC(C)=O)ccc21 (stereo not drawn) [HJC-1-63, N-(3-Methoxy-1,1-dioxo-2,3-dihydro-1H-1λ^6-benzo[b]thiophen-6-yl)acetamide] |  | > 10 µM | > 10 µM | 

More lines, main results first:

melting point | IC50 (MDA-MB-231; [1]) | IC50 (MCF-7; [2]) | SMILES | other results
242 to 243 °C |  |  | N#C/C(=C\c1ccccc1Cl)C(=O)Nc1ccc2c(c1)S(=O)(=O)C=C2 [RMF-1-33, 3-(2-Chlorophenyl)-2-cyano-N-(1,1-dioxo-1H-1λ^6-benzo[b]thiophen-6-yl)acrylamide] | 
253 to 254 °C |  |  | N#C/C(=C\c1c(F)cccc1F)C(=O)Nc1ccc2c(c1)S(=O)(=O)C=C2 [HJC-5-91, 2-Cyano-3-(2,6-difluorophenyl)-N-(1,1-dioxo-1H-1λ^6-benzo[b]thiophen-6-yl)acrylamide] | 
269 to 270 °C |  |  | N#C/C(=C\c1cccc([N+](=O)[O-])c1)C(=O)Nc1ccc2c(c1)S(=O)(=O)C=C2 [RMF-1-15, 2-Cyano-N-(1,1-dioxo-1H-1λ^6-benzo[b]thiophen-6-yl)-3-(3-nitrophenyl)acrylamide] | 
124 to 125 °C |  |  | C[C@H](NC(=O)c1cc(Cl)ccc1O)c1ccccc1 [Compound 9, (S)-5-Chloro-2-hydroxy-N-(1-phenylethyl)benzamide] | 
255 to 256 °C |  |  | COc1ccc(/C=C(\C#N)C(=O)Nc2ccc3c(c2)S(=O)(=O)C=C3)cn1 [RMF-1-28, 2-Cyano-N-(1,1-dioxo-1H-1λ^6-benzo[b]thiophen-6-yl)-3-(6-methoxy-pyridin-3-yl)acrylamide] | 
 | > 10 µM | > 10 µM | CS(=O)(=O)Nc1ccc(NC(=O)c2cc(Cl)ccc2OC2CCNCC2)c(Cl)c1 [HJC-4-35-2] | 
 | 6.21 µM | 2.97 µM | O=C(Nc1ccc2c(c1)S(=O)(=O)C=C2)c1cnc2ccccc2c1 [HJC-3-91, Quinoline-3-carboxylic acid (1,1-dioxo-1H-1λ^6-benzo[b]thiophen-6-yl)amide] | inhibition on breast cancer cell proliferation (FIG. 1) (MCF-7; MCF-7, 48 hr, μM concentrations): significant inhibition
 | > 10 µM | > 10 µM | CS(=O)(=O)NCCOc1ccc(Cl)cc1C(=O)Nc1ccc([N+](=O)[O-])cc1Cl [HJC-4-26, 5-Chloro-N-(2-chloro-4-nitrophenyl)-2-(2-methanesulfonylaminoethoxy)benzamide] | 
 | > 10 µM | > 10 µM | CS(=O)(=O)N1CCN(CCOc2ccc(Cl)cc2C(=O)Nc2ccc([N+](=O)[O-])cc2Cl)CC1 [HJC-2-55, 5-Chloro-N-(2-chloro-4-nitrophenyl)-2-[2-(4-methanesulfonylpiperazin-1-yl)-ethoxy]benzamide] | 
 | 5.3 µM | 9.37 µM | NCCOCCOc1ccc(Cl)cc1C(=O)Nc1ccc([N+](=O)[O-])cc1Cl [HJC-2-58, 2-[2-(2-Amino-ethoxy)-ethoxy]-5-chloro-N-(2-chloro-4-nitro-phenyl)benzamide] | 
 | > 10 µM | > 10 µM | O=C(Nc1ccc([N+](=O)[O-])cc1Cl)c1cc(Cl)ccc1OCC(O)CO (stereo not drawn) [HJC-3-60, 5-Chloro-N-(2-chloro-4-nitrophenyl)-2-(2,3-dihydroxypropoxy)benzamide] | 
 | > 10 µM | > 10 µM | COc1ccc(C(=O)Nc2ccc3c(c2)S(=O)(=O)CC3OC)cc1 (stereo not drawn) [HJC-2-20, 4-Methoxy-N-(3-methoxy-1,1-dioxo-2,3-dihydro-1H-1λ^6-benzo[b]thiophen-6-yl)benzamide] | 
 | 5.87 µM | > 10 µM | CC(=O)N1CCC(Oc2ccc(Cl)cc2C(=O)Nc2ccc([N+](=O)[O-])cc2Cl)CC1 [HJC-4-22, 2-(1-Acetylpiperidin-4-yloxy)-5-chloro-N-(2-chloro-4-nitrophenyl)benzamide] | 
